Earlier results, collected in patent publication US20170341994A1, “PLANT GROWTH REGULATOR AND A METHOD OF USING THE SAME” (GLUCAN BIOLOGICAL TECHNOLOGY CO., LTD, priority 2016, published 2017).

Test system: tumor
Details: some studies

Substance: β-glucan
- inhibition of tumor growth: more than 95%
